Assay results taken from patent US20100022584A1, “Modulation of Glutamine Synthetase Activity” (priority 2006, published 2010).
Residue numbers refer to the chain shown, from its start.

Experiments:
[1] = molecular target: T1, glutamine synthetase mutant Y397V (Escherichia coli, UniProt P0A9C5, Y398V); test: HPLC forward-reaction glutamine synthetase assay with serine protease inhibitors; format: biochemical, E. coli; conditions: 1 mM inhibitor; for inhibition of the enzyme (in words): HPLC assays; for % Conversion: glutamine-based divided by ADP-based specific activity
T1 construct: made in house; host or cells: E. coli YMC11 (glutamine synthetase auxotroph), pBluescript II SK+
T1 sequence (P0A9C5 2-469 Y398V limits assumed): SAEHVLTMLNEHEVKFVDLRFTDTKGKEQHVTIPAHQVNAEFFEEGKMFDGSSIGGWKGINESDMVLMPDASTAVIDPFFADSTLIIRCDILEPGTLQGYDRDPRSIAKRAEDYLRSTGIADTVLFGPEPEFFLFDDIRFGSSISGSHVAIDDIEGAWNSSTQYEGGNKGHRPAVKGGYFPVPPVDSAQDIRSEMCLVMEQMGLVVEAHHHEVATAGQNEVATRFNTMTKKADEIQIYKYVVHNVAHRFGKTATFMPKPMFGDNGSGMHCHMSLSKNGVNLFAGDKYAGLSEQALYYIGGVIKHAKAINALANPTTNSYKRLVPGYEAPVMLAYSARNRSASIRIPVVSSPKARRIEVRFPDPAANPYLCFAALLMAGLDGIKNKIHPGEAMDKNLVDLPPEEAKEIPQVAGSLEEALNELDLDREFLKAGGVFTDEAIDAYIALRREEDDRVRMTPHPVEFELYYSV

[2] = molecular target: T2, adenylylated WT enzyme, WT (AD) glutamine synthetase (Escherichia coli, UniProt P0A9C5); test: as above; format: biochemical, E. coli; conditions: 1 mM inhibitor; for % Reduction in ADP-based Specific Activity / % Reduction in Glutamine-based Specific Activity / % Conversion: WT (AD); for % Reduction in ADP-based Specific Activity / % Reduction in Glutamine-based Specific Activity: 60 min pre-incubation, vs no-inhibitor control, positive = activity increased; for % Conversion: glutamine-based divided by ADP-based specific activity; for inhibition of the enzyme (in words): adenylylated WT enzyme, HPLC assays
T2 construct: made in house; host or cells: E. coli carrying pBSK-ECgln (pBluescript II SK+), continuous culture; YMC11 is the expression strain named for this plasmid
T2 sequence (P0A9C5 2-469 limits assumed): T1 sequence (P0A9C5 2-469 Y398V limits assumed) with V397Y
Procedure: This assay was set up to measure glutamine synthetase activity according to the forward reaction, and measures the amount of glutamine formed from […] of L-glutamate in the presence of MnCO3-ATP (the basis of one reaction) and MgATP (the basis of a second reaction). In addition, the amount of ADP formed is also measured in a separate assay, using the same reagents.
All enzyme preparations were adjusted to the same concentration of protein, and added to the assay mixture in a volume of 50 μl. The addition of the enzyme started the reaction, which was then allowed to proceed for 1 hour. The reaction was stopped by the addition of 6 μl of a 50% solution of trichloroacetic acid. Each assay was then aliquoted into 4 HPLC vials (150 μl per vial), two of which were assayed for glutamate and glutamine using a Phenomenex Luna 5 μC18 Column on an Agilent 100 HPLC instrument. The ATP/ADP assays were run on a Chromolith Performance RP-18c column also using an Agilent 100 HPLC instrument.
As it is believed that two putative catalytic triads, similar to those in the serine proteases, are involved in the reaction mechanism of glutamine synthetase, certain of the mutants were also assayed by HPLC in the presence of the serine protease inhibitors, AEBSF and PMSF, in order to assess the effect that these inhibitors had on the enzyme. The enzymes assessed were the adenylylated WT enzyme, the deadenylylated WT enzyme, and the mutant enzymes S52A, S52A Y397V, S53A, S53A Y397V, S52A S53A and S52A S53A Y397V. The enzymes were pre-incubated for 60 minutes in the presence of 1 mM PMSF or 1 mM AEBSF. A control reaction was set up for each enzyme, which contained no inhibitor. Each enzyme was then added to assays set up as described above. The assay was allowed to proceed for 60 minutes, then stopped by the addition of […] of 50% TCA, after which they were analysed by HPLC. All assays were run in triplicate.
In addition to the γ-glutamyl transferase assays, assays were also developed to measure the rate of conversion of ATP and glutamate to ADP and glutamine by HPLC. These were set up as single assays but analysed separately for glutamate and glutamine and ATP and ADP. The conversion rates for glutamate to glutamine, in both the presence of Mn^2+ and Mg^2+ by glutamine synthetase, is referred to as the […] specific activity and is presented in μmoles/min/mg protein. The conversion rates for ATP to ADP, in both the presence of Mn^2+ and Mg^2+ by glutamine synthetase, is referred to as the ADP-based specific activity and is presented in μmoles/min/mg protein. The percentage of conversion was also calculated by dividing the glutamine-based specific activity by the ADP-based specific activity, and this value is interpreted as the ability of the enzyme to complete both steps of the reaction, i.e., glutamate to glutamine and ATP to ADP, at an equivalent level of efficiency.

Compound	inhibition of the enzyme (in words) [1]	% Conversion ([1]; Mg assay) [%]	% Conversion ([1]; Mn assay) [%]	% Reduction in ADP-based Specific Activity ([2]; Mg assay)	% Reduction in Glutamine-based Specific Activity ([2]; Mg assay) [%]	% Conversion ([2]; Mg assay) [%]	% Reduction in ADP-based Specific Activity ([2]; Mn assay) [%]	% Reduction in Glutamine-based Specific Activity ([2]; Mn assay) [%]	% Conversion ([2]; Mn assay) [%]	inhibition of the enzyme (in words) [2]
O=S(=O)(F)Cc1ccccc1 [PMSF]	found to inhibit	78	61	+48.13%	−46.33	42	−15.63	−49.20	61	found to inhibit
NCCc1ccc(S(=O)(=O)F)cc1 [AEBSF]	appeared to cause inhibition	107	108	−34.60%	−24.59	134	−26.76	−14.86	118	appeared to cause inhibition
